This note sets out measurements from ChEMBL document CHEMBL2375250, “Efficient synthesis of new (R)-2-amino-1-butanol derived ureas, thioureas and acylthioureas and in vitro evaluation of their antimycobacterial activity” (Eur J Med Chem, 2013).

Values after ≈ are worked out from the molar mass of the structure shown. Structures can show the parent of a compound that is named as a salt.

Assay [1] relates to Mycobacterium tuberculosis. Nature of the assay: Antimycobacterial activity against Mycobacterium tuberculosis H37Rv assessed as bacterial growth at 5 ug/mL after 45 days by Lowenstein-Jensen method. The assay is classed as functional.
The test system of assay [2] is Mycobacterium tuberculosis. Nature of the assay: Antimycobacterial activity against Mycobacterium tuberculosis H37Rv assessed as growth inhibition after 45 days by Lowenstein-Jensen method. The assay is classed as functional.
A short description of assay [3]: Selectivity index, ratio of IC50 for HEK293T cells to MIC for Mycobacterium tuberculosis H37Rv. The assay is classed as functional, HEK-293T.
Another assay relates to HEK-293T. Briefly: Cytotoxicity against HEK293T cells assessed as cell viability after 72 hrs by MTT assay. The assay is classed as cell-based. The conditions noted are these: Homo sapiens. In general terms: Tetrazolium assays rely on reduction of a dye to a coloured formazan, in cell work by metabolically active cells.
Assay [4] has as its system Mycobacterium tuberculosis. Nature of the assay: Antimycobacterial activity against Mycobacterium tuberculosis assessed as growth inhibition. The format is functional.
Another assay concerns Mycolicibacterium aurum. Nature of the assay: Antimycobacterial activity against Mycobacterium aurum A+ assessed as growth inhibition after 4 days microdrop agar proportion test. The format is functional. The following applies: 96 h.
A further assay has as its system Mycobacterium avium. Nature of the assay: Antimycobacterial activity against Mycobacterium avium 724 assessed as growth inhibition after 12 days microdrop agar proportion test. The assay is classed as functional. The conditions noted are these: Mycobacterium avium, 724, 288 h.

`CC[C@H](CO)NC(=O)Nc1ccc(Cc2ccc(NC(=O)N[C@H](CC)CO)cc2)cc1`: the Activity in assay [1] was found to be 100%. Moreover, the MIC (usually the lowest concentration that inhibits growth of the organism) in assay [2] was over 11.7 µM.
As for `CC[C@H](CO)NC(=O)NCCc1ccccc1`, the Activity in assay [1] is on record as 100%. Besides, in assay [2], the MIC was over 21.2 µM.
The matching figures for `CCCCNC(=O)N[C@H](CC)CO`: 100% and over 26.6 µM.
Regarding `CC[C@H](CO)NC(=S)NC(=O)/C=C/c1ccccc1`, in assay [3], the “Selectivity Index” value is recorded as 119.2. In addition, the IC50 (in general, the concentration at which inhibition is half-maximal) in the assay with HEK-293T is 42.9 µM. Further, the MIC in assay [2] is 0.36 µM (≈ 0.1 µg/mL).
`CC[C@H](CO)NC(=O)Nc1ccc(NC(=O)N[C@H](CC)CO)cc1`: the Activity in assay [1] is listed as 100%. For the same compound, the MIC in assay [2] was over 14.8 µM.
On the same counts, the results for `CC[C@H](CO)NC(=O)N[C@H](CC)CO` are 100% and over 24.5 µM.
Consider `CC(C)=CCC/C(C)=C/CNCCNC1C2CC3CC(C2)CC1C3` (stereo unspecified) [SQ109], for which, in assay [4], the MIC was 0.7 µM (≈ 0.231 µg/mL).
Take `CCNC(=S)N[C@H](CC)CO`: the Activity in assay [1] is listed as 100%. In addition, in assay [2], the MIC is over 28.4 µM.
On the same counts, the results for `CCCNC(=O)N[C@H](CC)CO` are 100% and over 28.7 µM.
The matching figures for `CC[C@H](CO)NC(=O)NC1CCCCC1`: 100% and over 23.3 µM.
On the same counts, the results for `CC[C@H](CO)NC(=S)NC` are 100% and over 30.8 µM.
As to `CC[C@H](CO)NC(=S)NC(=O)c1ccccc1O`, the “Selectivity Index” value in assay [3] is reported as 14. Moreover, in the assay with HEK-293T, the IC50 came to 104 µM. In addition, the MIC in assay [2] turned out to be 7.46 µM (≈ 2 µg/mL).
For `CC[C@H](CO)NC(=O)NCc1ccccc1`, the Activity in assay [1] was 100%. For the same compound, in assay [2], the MIC is over 22.5 µM.
Turning to `CC(C)CCOc1ccc(NC(=S)Nc2ccc(OCCC(C)C)cc2)cc1` [TIOCARLIDE], the MIC in the assay on Mycolicibacterium aurum turned out to be 4.99 µM; with Mycobacterium avium it was 4.99 µM (≈ 2 µg/mL).
Regarding `CC[C@H](CO)NC(=S)NC(=O)CCc1ccccc1`, the “Selectivity Index” value in assay [3] was determined as 9.3. The IC50 in the assay on HEK-293T was 66.2 µM. Further, the MIC in assay [2] is 7.13 µM (≈ 2 µg/mL).
Turning to `CC[C@H](CO)NC(=O)N(C)C`, in assay [1], the Activity is given as 100%. For the same compound, the MIC in assay [2] was over 31.2 µM.
The matching figures for `CC[C@H](CO)NC(=O)N[C@H](C)c1ccccc1`: 100% and over 21.2 µM.
On the same counts, the results for `CC[C@H](CO)NC(=O)NC(C)(C)C` are 100% and over 26.6 µM.
For `CC[C@@H](CO)NCCN[C@@H](CC)CO` [ETHAMBUTOL HYDROCHLORIDE], the MIC in assay [4] and in assay [2] was 7.22 µM throughout.
As for `CC[C@H](CO)NC(=O)NC12CC3CC(CC(C3)C1)C2`, in assay [1], the Activity was found to be 100%. Further, the MIC in assay [2] was over 18.8 µM.
Take `CC[C@H](CO)NC(=S)NC(=O)c1ccc(N(C)C)cc1`: in assay [3], the “Selectivity Index” value came to 3.8. In addition, in the assay with HEK-293T, the IC50 stood at 12.8 µM. The MIC in assay [2] was 3.39 µM (≈ 1 µg/mL).
Turning to `CC[C@H](CO)NC(=O)Nc1ccccc1`, the Activity in assay [1] came to 100%. In addition, in assay [2], the MIC was over 24 µM.
On the same counts, the results for `CC[C@H](CO)NC(=O)NCC(c1ccccc1)c1ccccc1` are 100% and 4.8 µM (≈ 1.5 µg/mL).
For `CC[C@H](CO)NC(=O)NCCCCCCNC(=O)N[C@H](CC)CO`, the Activity in assay [1] stood at 100%. Moreover, the MIC in assay [2] was over 14.4 µM.
